Data set [1] can be described thus: Serum stability test (human serum). In kind it is in vitro ADME. The conditions noted are these: 25% human serum (supernatant after centrifugation), 24 h at 37° C., read-out: Degradation in human serum. On the procedure:
The stability tests were carried by modifying a previously reported procedure (Nguyen, L T et al. PLoS One 2010, 5, e12684). Diluted human serum (25%) was centrifuged at 15,000 rpm for 10 min, and the supernatant was collected. A peptide stock solution was diluted into the supernatant to a final concentration of 5 μM and incubated at 37° C. At various time points (0-24 h), 200-μL aliquots were withdrawn and mixed with 50 μL of 15% trichloroacetic acid and incubated at 4° C. overnight. The final mixture was centrifuged at 15,000 rpm for 10 min in a microcentrifuge, and the supernatant was analyzed by reversed-phase HPLC equipped with a C18 column. The amount of remaining peptide (%) was determined by integrating the area underneath the peptide peak (monitored at 214 nm) and comparing with that of the control reaction (no serum).

Another data set addresses HePTP (Homo sapiens, UniProt P35236). In words: PTP inhibition assay (pNPP). In kind it is biochemical. The settings on record: 1 μM inhibitor. On the procedure: (§1) PTP assays were performed in a quartz microcuvette (total volume 150 μL). The reaction mixture contains 100 mM Tris-HCl, pH 7.4, 50 mM NaCl, 2 mM EDTA, 1 mM TCEP, 0-1 μM of PTP inhibitor, and 500 μM para-nitrophenyl phosphate (pNPP). The enzymatic reaction was initiated by the addition of PTP (final concentration 15-75 nM) and monitored continuously at 405 nm on a UV-VIS spectrophotometer. Initial rates were calculated from the reaction progress curves (typically <60 s). The half-maximal inhibition constant (IC50) was defined as the concentration of an inhibitor that reduced the enzyme activity to 50% and was obtained by plotting the rates (V) against the inhibitor concentration [I] and fitting the data against the equation

The target in another data set is PTPRC (Homo sapiens, UniProt P08575). The data set can be described thus: PTP inhibition assay (pNPP). It counts as biochemical. The settings on record: 1 μM inhibitor. On the procedure:
as §1

For another data set, the target named is PTPH1 (Homo sapiens, UniProt P26045). The data set can be described thus: PTP inhibition assay (pNPP). It counts as biochemical. The conditions noted are these: 1 μM inhibitor. On the procedure:
as §1

For the next data set, the target named is SHP1 (Homo sapiens, UniProt P29350). In words: PTP inhibition assay (pNPP). It counts as biochemical. The conditions noted are these: 1 μM inhibitor; read-out: Inhibition of SHP-1. The method, then:
as §1

The next data set addresses PTPRO (Homo sapiens, UniProt Q16827). The data set can be described thus: PTP inhibition assay (pNPP). In kind it is biochemical. The conditions noted are these: 1 μM inhibitor. On the procedure:
as §1

Another data set deals with A549 lung cancer cells. The data set can be described thus: Live-cell confocal microscopy of FITC-labeled PTP1B inhibitors. In kind it is cell-based, human. The conditions noted are these: 5 μM FITC-labeled inhibitor, 2 h. On the procedure: Approximately 5×10^4 A549 cells were seeded in 35-mm glass-bottomed microwell dish (MatTek) containing 1 mL of media and cultured for one day. A549 cells were gently washed with DPBS once and treated with the FITC-labeled PTP1B inhibitors (5 μM), dextran^Rho (1 mg mL^−1) in growth media for 2 h at 37° C. in the presence of 5% CO2. The peptide-containing media was removed and the cells were washed with DPBS three times and incubated for 10 min in 1 mL of DPBS containing 5 μM DRAQS. The cells were again washed with DPBS twice. Then the cells were imaged on a Visitech Infinity 3 Hawk 2D-array live cell imaging confocal microscope (with a 60× oil immersion lens) at 37° C. in the presence of 5% CO2. Live-cell confocal microscopic imaging of HEK293 cells after treatment with FITC-labeled Pin1 inhibitors were similarly conducted.

The next data set concerns the target T1, PTP1B (Homo sapiens, UniProt P18031).
T1 construct: The gene coding for the catalytic domain of PTP1B (amino acids 1-321) was amplified; made in house; host or cells: prokaryotic vector pET-22b(+)-ybbR
The data set can be described thus: PTP inhibition assay (pNPP). It counts as biochemical. The settings on record: monocyclic peptide inhibitors. The method, then: as §1
[formula] where V0 is the enzymatic reaction rate in the absence of inhibitor. […] The reaction rate (V) was plotted against the pNPP concentration ([S]) and fitted against the equation
[formula] to obtain the Michaelis constant K. The Ki value was obtained by plotting the K values against the inhibitor concentration [I] and fitted to equation
[formula] where K0 is the Michaelis constant in the absence of inhibitor ([I]=0).

The next data set concerns the target CAL-PDZ domain (Homo sapiens, UniProt Q9HD26). The data set can be described thus: Fluorescence anisotropy binding to CAL-PDZ. The settings on record: absence of a reducing agent. The method, then: The full fluorescence anisotropy (FA) titration experiment was performed by incubating 100 nM fluorophore-labeled peptidyl ligands with varying concentrations (0-6 μM) of CAL-PDZ (Cushing, P R et al. […] The FA values were measured on a Molecular Devices Spectramax M5 spectrofluorimeter, with excitation and emission wavelengths at 485 nm and 525 nm, respectively. Equilibrium dissociation constants (KD) were determined by plotting the fluorescence anisotropy values as a function of CAL-PDZ concentration. The titration curves were fitted to the following equation, which assumes a 1:1 binding stoichiometry
where Y is the measured anisotropy at a given CAL-PDZ concentration x; L is the bicyclic peptide concentration; Qb/Qf is the correction fact for dye-protein interaction; Amax is the maximum anisotropy when all the peptides are bound to CAP-PDZ, while Amin is the minimum anisotropy when all the peptides are free.
A general note: In fluorescence polarisation assays a small probe gives low polarisation when free and higher when bound to something large.

Data set [2] relates to HeLa cells. The data set can be described thus: MTT proliferation assay with Pin1 inhibitors. The settings on record: MTT. In kind it is cell-based, human. On the procedure:
HeLa cells (100 μL/each well, 5×10^4 cells/mL) were seeded in a 96-well culture plate and allowed to grow overnight in DMEM supplemented with 10% FBS. […] After that, 10 μL of a MTT stock solution (5 mg/mL) was added into each well. The plate was incubated at 37° C. for 4 h and 100 μL of SDS-HCl solubilizing solution was added into each well, followed by thorough mixing. The plate was incubated at 37° C. overnight and the absorbance of the formazan product was measured at 570 nm on a Molecular Devices Spectramax M5 plate reader. Each experiment was performed in triplicates and the cells untreated with peptide were used as control.
In general terms: Formazan colour is commonly taken as a measure of viable cells.

The test system of data set [3] is HeLa cells. The data set can be described thus: Live-cell confocal microscopy of FITC-labeled peptides. The conditions noted are these: 5 μM. It counts as cell-based, human. The method, then:
To detect peptide internalization, 1 mL of HeLa cell suspension (5×10^4 cells) was seeded in a 35 mm glass-bottomed microwell dish (MatTek) and cultured overnight. Cells were gently washed with DPBS twice and treated with FITC labeled peptides (5 μM) and dextran^Rho (0.5 mg mL^−1) in phenol-red free DMEM containing 1% serum at 37° C. for 1 h in the presence of 5% CO2. After removal of the medium, the cells were gently washed with DPBS twice and incubated with 5 μM DRAQS in DPBS for 10 min. The cells were again washed with DPBS twice and imaged on a Visitech Infinity 3 Hawk 2D-array live cell imaging confocal microscope. Images were captured under the same parameters and adjusted under the same setting using MetaMorph (Molecular Devices).

A further data set concerns ΔF508-CFTR CFBE cells. The data set can be described thus: SPQ intracellular chloride concentration assay. The conditions noted are these: 20 μM VX809 and 50 μM peptide 8. It counts as cell-based. On the procedure: A SPQ (6-Methoxy-N-(3-sulfopropyl)quinolinium) assay was utilized to estimate the transport activity of ΔF508-CFTR activity in CFBE cells, as the fluorescence of SPQ is negatively correlated with increasing concentration of intracellular chloride (Illsley, N P and Verkman, A S. Biochemistry 1987, 26, 1215). CFBE cells were grown on 96-well plate, which was pre-coated with 1 mg/ml human fibronectin, 3 mg/ml collagen I bovine, and 1 mg/ml bovine serum albumin, using DMEM media supplemented with L-glutamine and 10% FBS. […] Cells were then loaded with SPQ using hypotonic shock at 37° C. for 15 min with 10 mM SPQ containing 1:1 (v/v) Opti-MEM/water solution. The cells were then washed and incubated twice for 10 min with fluorescence quenching NaI buffer (130 mM NaI, 5 mM KNO3, 2.5 mM Ca(NO3)2, 2.5 mM Mg(NO3)2, 10 mM D-glucose, 10 mM N-(2-hydroxyethyl) piperazine-N′-(2-ethanesulfonic) acid (HEPES, pH 7.4)). […] Fluorescence non-specific to CFTR-mediated iodide efflux was measured by incubating the cells with the activation cocktail and the CFTR specific inhibitor GlyH101 (10 μM). The effects of CAL-PDZ inhibitors were evaluated by the fluorescence increasing rate above the basal level. The fluorescence of dequenched SPQ was measured using the plate reader VICTOR X3 (Perkin Elmer) with excitation wavelength at 350 nm and DAPI emission filter. […]

Data set [4] deals with Bronchial epithelial CFBE cells. The data set can be described thus: Immunofluorescent staining of ΔF508-CFTR. In kind it is cell-based. The conditions noted are these: 10 μM Corr-4a and 50 μM unlabeled peptide 8. On the procedure: After the treatments, cells were fixed in cold methanol for 20 min. The slides were then incubated in 1% BSA/PBS for 10 min, followed by incubation at 37° C. for 1 h with mouse anti-human monoclonal CFTR antibody (R&D Systems). Thereafter, the slides were incubated at 37° C. for 45 min with Alexa Fluor® 488-conjugated anti-mouse IgG2a secondary antibody. Cells were visualized on a Leica TCS SP2 AOBS confocal laser scanning microscope. All measurements were conducted in a double-blinded manner by two independent investigators.

pIC50: −log10 of the molar value. Starred links: 1 amine or outer side, 2 acyl side, 3 side chain; linkers in the order of their positions; H or OH if unused. Positions of bridges follow the written chain, without caps; N, C: chain ends. Non-standard residues stand in square brackets, D forms with d. Residues, ends and D or L forms follow the SMILES beside them. Trimesoyl = O=C(c1cc(C(=O)[*:2])cc(C(=O)[*:3])c1)[*:1]; F2Pmp = N[C@@H](Cc1ccc(C(F)(F)P(=O)(O)O)cc1)C(=O)O; 2Nal = N[C@@H](Cc1ccc2ccccc2c1)C(=O)O; Phg = N[C@H](C(=O)O)c1ccccc1; Pip = O=C(O)[C@@H]1CCCCN1; Dap = NC[C@H](N)C(=O)O

SHP1, sequence (P29350 whole entry): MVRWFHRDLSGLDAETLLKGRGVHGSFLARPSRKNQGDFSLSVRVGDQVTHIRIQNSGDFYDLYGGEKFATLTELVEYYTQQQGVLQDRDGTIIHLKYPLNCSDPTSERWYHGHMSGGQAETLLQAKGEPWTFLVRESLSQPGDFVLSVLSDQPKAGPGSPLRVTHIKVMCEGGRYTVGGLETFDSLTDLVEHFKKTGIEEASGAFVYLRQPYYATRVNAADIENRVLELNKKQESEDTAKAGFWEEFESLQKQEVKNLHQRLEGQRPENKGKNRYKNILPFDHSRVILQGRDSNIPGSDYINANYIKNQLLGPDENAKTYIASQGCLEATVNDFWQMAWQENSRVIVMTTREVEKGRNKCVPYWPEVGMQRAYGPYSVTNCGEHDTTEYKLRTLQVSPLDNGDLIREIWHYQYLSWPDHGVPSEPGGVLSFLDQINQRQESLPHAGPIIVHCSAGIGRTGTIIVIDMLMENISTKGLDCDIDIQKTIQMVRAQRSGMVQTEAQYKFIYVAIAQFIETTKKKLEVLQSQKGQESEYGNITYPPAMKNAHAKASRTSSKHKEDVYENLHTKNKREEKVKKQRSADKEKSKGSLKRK
T1 sequence (P18031 1-321): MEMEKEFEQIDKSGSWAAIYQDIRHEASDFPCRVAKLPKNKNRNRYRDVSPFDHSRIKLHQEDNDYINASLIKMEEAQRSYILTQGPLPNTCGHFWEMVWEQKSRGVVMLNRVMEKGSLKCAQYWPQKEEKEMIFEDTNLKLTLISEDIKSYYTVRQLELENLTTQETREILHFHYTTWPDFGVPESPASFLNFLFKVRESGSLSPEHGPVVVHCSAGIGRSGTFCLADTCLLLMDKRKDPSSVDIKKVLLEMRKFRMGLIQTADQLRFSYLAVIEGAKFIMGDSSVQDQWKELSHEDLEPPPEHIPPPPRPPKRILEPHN
PTPRO, sequence (Q16827 30-1216): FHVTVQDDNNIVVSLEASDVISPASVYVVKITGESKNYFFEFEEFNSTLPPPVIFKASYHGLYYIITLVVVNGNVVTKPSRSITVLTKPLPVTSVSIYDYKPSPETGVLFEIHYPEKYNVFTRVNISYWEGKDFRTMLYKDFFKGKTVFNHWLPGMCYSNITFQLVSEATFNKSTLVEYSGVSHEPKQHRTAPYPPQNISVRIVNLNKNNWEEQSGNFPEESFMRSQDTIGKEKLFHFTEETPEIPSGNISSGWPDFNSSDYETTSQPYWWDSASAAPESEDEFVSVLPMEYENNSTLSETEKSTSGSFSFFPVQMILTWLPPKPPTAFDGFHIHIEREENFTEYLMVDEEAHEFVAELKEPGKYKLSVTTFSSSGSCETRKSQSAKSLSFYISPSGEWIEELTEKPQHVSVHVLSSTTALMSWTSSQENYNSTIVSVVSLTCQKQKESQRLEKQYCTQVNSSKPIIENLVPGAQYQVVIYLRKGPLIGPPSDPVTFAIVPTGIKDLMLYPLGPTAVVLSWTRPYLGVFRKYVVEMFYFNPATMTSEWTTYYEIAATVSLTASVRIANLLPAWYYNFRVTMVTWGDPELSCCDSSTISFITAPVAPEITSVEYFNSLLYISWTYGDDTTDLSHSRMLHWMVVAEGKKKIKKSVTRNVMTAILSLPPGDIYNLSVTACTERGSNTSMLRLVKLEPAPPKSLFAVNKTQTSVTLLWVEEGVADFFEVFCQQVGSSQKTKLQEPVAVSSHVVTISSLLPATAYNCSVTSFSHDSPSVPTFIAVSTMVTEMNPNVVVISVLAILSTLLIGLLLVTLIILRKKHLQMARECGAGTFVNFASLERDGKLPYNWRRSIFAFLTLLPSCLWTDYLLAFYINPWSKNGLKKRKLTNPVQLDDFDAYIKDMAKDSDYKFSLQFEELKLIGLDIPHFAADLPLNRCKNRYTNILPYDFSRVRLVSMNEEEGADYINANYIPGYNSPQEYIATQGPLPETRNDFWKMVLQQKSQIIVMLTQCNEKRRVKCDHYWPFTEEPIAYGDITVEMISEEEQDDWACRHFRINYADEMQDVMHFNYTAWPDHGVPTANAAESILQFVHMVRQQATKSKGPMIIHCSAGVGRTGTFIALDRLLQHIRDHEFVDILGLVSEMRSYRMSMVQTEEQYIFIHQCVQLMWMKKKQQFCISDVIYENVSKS
PTPH1, sequence (P26045 whole entry, species assumed): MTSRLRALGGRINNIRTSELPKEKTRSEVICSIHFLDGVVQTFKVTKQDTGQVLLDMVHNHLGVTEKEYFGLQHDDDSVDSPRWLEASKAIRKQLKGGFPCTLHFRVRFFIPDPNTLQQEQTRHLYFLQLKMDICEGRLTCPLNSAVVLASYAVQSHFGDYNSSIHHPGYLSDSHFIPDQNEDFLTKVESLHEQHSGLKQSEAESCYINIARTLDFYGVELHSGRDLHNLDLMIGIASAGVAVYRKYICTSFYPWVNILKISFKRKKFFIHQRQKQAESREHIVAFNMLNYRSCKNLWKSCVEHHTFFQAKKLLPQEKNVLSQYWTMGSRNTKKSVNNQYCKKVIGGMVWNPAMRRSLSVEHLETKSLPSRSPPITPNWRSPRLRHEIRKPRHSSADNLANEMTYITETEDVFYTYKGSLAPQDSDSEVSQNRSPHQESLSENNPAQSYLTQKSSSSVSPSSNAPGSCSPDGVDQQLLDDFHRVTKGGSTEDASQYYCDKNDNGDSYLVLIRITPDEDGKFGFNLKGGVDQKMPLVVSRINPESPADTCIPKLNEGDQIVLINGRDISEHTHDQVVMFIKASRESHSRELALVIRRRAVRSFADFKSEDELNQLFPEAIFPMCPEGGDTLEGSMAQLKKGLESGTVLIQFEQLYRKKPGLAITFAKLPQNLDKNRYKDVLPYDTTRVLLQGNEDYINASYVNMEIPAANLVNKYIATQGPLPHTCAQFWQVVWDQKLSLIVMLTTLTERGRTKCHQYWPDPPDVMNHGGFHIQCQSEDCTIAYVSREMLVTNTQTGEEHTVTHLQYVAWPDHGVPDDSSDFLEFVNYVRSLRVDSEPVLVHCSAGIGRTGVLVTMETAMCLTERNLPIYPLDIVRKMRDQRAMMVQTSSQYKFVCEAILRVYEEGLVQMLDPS
PTPRC, sequence (P08575 26-1306, species assumed): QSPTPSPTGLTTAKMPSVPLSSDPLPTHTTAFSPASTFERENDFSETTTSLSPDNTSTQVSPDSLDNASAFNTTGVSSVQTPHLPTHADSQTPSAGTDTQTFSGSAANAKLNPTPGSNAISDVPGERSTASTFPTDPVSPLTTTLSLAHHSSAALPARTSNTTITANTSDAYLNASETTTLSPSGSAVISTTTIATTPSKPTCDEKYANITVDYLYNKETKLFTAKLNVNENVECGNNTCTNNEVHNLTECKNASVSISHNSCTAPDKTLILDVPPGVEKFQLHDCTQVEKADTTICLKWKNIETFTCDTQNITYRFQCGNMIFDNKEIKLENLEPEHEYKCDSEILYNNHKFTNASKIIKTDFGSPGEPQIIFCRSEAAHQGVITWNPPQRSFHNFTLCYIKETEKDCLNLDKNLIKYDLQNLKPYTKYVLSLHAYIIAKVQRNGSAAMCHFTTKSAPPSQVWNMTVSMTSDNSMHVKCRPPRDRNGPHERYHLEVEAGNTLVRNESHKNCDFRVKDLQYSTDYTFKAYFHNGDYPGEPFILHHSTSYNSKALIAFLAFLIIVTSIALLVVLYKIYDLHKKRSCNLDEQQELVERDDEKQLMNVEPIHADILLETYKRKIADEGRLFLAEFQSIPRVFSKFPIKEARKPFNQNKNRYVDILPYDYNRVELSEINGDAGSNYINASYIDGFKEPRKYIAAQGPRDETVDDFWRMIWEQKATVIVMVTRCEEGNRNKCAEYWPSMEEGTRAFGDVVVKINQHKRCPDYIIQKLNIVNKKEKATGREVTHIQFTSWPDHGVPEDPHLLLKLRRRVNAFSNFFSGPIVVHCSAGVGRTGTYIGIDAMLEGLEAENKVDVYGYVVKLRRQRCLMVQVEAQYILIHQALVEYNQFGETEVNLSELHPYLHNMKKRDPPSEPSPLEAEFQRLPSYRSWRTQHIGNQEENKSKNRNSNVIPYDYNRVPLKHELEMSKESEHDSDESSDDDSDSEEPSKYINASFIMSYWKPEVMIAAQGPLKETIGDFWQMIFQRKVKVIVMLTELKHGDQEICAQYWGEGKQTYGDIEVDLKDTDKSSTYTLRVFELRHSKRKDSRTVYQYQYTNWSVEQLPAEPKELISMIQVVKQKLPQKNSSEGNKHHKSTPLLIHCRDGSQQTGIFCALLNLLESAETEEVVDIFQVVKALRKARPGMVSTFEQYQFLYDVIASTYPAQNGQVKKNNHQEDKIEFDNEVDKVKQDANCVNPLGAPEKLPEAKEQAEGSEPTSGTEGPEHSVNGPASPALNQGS
HePTP, sequence (P35236 whole entry, species assumed): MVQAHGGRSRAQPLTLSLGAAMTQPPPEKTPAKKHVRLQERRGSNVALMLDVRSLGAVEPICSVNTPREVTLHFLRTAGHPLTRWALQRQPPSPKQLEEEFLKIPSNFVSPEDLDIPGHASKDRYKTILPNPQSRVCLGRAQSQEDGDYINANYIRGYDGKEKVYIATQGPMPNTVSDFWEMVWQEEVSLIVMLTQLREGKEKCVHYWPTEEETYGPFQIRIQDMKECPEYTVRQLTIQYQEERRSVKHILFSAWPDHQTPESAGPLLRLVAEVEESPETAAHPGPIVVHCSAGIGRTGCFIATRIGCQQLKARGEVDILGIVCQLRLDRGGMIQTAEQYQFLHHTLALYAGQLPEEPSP

A word on the inhibition: it is the change of the read-out against control, counted positive when it falls. Regarding `CC(C)[C@H]1NC(=O)[C@H](CO)NC(=O)c2cc3cc(c2)C(=O)NC[C@H](NC(=O)[C@H](Cc2c[nH]cn2)NC(=O)[C@H](Cc2ccc(C(F)(F)P(=O)(O)O)cc2)NC(=O)[C@@H]2CCCN2C1=O)C(=O)N[C@@H](CCCNC(=N)N)C(=O)N[C@@H](CCCNC(=N)N)C(=O)N[C@@H](CCCNC(=N)N)C(=O)N[C@@H](CCCNC(=N)N)C(=O)N[C@@H](Cc1ccc2ccccc2c1)C(=O)N[C@@H](Cc1ccccc1)C(=O)N[C@H](C(=O)N[C@@H](CCCCN)C(N)=O)CNC3=O` [Bicyclic Inhibitor 4] (S[dV]P[F2Pmp]H[Dap]RRRR[2Nal]F[Dap]K-NH2; linker N-6-13 via Trimesoyl; C-terminus assumed), the metabolised at 24 h, 5 μM in [1] was about 10%. Further, the inhibition at 1 µM against HePTP, against PTPRC, against PTPH1, at SHP1 and against PTPRO was under 10% in each case.

As a reminder, the pIC50 is the negative decadic logarithm of the IC50, by convention in mol/L. Turning to `CC(C)[C@H]1NC(=O)[C@H](CO)NC(=O)[C@H](CCC(N)=O)NC(=O)[C@H](Cc2ccccc2)NC(=O)[C@H](Cc2ccc3ccccc3c2)NC(=O)[C@H](CCCNC(=N)N)NC(=O)[C@H](CCCNC(=N)N)NC(=O)[C@H](CCCNC(=N)N)NC(=O)[C@H](CCCNC(=N)N)NC(=O)[C@H](Cc2c[nH]cn2)NC(=O)[C@H](Cc2ccc(C(F)(F)P(=O)(O)O)cc2)NC(=O)[C@@H]2CCCN2C1=O` [Monocyclic Inhibitor 2, cyclo(Ser-D-Val-Pro-F2Pmp-His-Arg-Arg-Arg-Arg-Nal-Phe-Gln)] (cyclo(S[dV]P[F2Pmp]HRRRR[2Nal]FQ)), the “Cellular uptake (confocal)” value with A549 lung cancer cells is “poor cellular uptake”. The molecule further gave a pIC50 at PTP1B of about 7.52.

On to `C[C@@H]1NC(=O)[C@H](CCCNC(=N)N)NC(=O)[C@H](Cc2ccc3ccccc3c2)NC(=O)[C@@H]2CCCCN2C(=O)[C@@H]([C@H](C)O)NC(=O)[C@H](c2ccccc2)NC(=O)[C@H](Cc2c[nH]cn2)NC(=O)c2cc3cc(c2)C(=O)NC[C@H](NC(=O)[C@@H](C)NC1=O)C(=O)N[C@@H](Cc1ccccc1)C(=O)N[C@@H](Cc1ccc2ccccc2c1)C(=O)N[C@@H](CCCNC(=N)N)C(=O)N[C@@H](CCCNC(=N)N)C(=O)N[C@@H](CCCNC(=N)N)C(=O)N[C@@H](CCCNC(=N)N)C(=O)N[C@H](C(=O)N[C@@H](CCCCN)C(N)=O)CNC3=O` [Peptide 8, bicyclo[Tm-(His-Phg-D-Thr-Pip-Nal-Arg-Ala-D-Ala)-Dap-(Phe-Nal-Arg-Arg-Arg-Arg-Dap)]-Lys] (H[Phg][dT][Pip][2Nal]RA[dA][Dap]F[2Nal]RRRR[Dap]K-NH2; linker N-9-16 via Trimesoyl; C-terminus assumed), for which the “Binding to CAL-PDZ domain” value at CAL-PDZ domain was “no detectable binding”. Moreover, the “Effect on cell growth” value in the data set with HeLa cells [2] is “inhibited cell growth, but to a lesser extent than inhibitor 7”. In addition, in the data set with HeLa cells [3], the “Intracellular FITC fluorescence (confocal)” value is “intense and diffuse fluorescence throughout the entire cell”. The “Ion channel activity of ΔF508-CFTR” value with ΔF508-CFTR CFBE cells is reported as “acted synergistically”. In data set [4], the “ΔF508-CFTR at the cell surface” value is on record as “much greater amounts of the protein at the cell surface”.

The values above are taken from US10815276B2, “Cell penetrating peptides and methods of making and using thereof” (Entrada Therapeutics, Inc., priority 2014, dated 2020).
